Measured values taken from publication PMC8409945, “In silico identification and experimental validation of cellular uptake and intracellular labeling by a new cell penetrating peptide derived from CDN1” (Drug Delivery, 2021).

Tests used:
[1] = Peptide aggregation assay by native PAGE; assay type: physicochemical; settings: 4 µl peptide 500 µM in PBS, 6.5% native PAGE; Figure S5(B)
[2] = test system: mouse erythrocytes
[3] = test system: HepG2 cells; experiment: Cellular uptake of FITC-labeled peptides, fluorescence microscopy and lysate fluorescence quantification; assay type: cell-based, human
Procedure: (§1) All cells (thawed cells were passaged less than 5 times) were suspended in 0.5 ml media and cultured in a 24-well plate at a concentration of 1.6 × 10^5 cells per well overnight. […] After incubation, the cells were washed with PBS three times and then imaged by fluorescence microscopy with 20 times lens (Nikon, Tokyo, Japan).
(§2) To determine the penetration efficiency of CPP, the cellular uptake of the indicated concentration of CPP was quantified by multimode spectrophotometry Peptide incubation. The washing step was the same as above, followed by cell lysate collection with 0.3 ml/well-lysing buffer (0.1 M NaOH) for 10 minutes, and then serially centrifuged at 110 g for 5 minutes. A plate-reader spectrophotometer (Tecan, Mannedorf, Switzerland) was used to quantify the fluorescence intensity of each well’s supernatant at the wavelengths of 485 nm in excitation and 535 nm in emission. The protein concentration of supernatant measured by Bradford assay was used to normalize fluorescence intensity. The fluorescence of cellular uptake was expressed as intensity per mg of total cellular protein. Experiments of quantification indicated in this paper were repeated at least three times.

[4] = test system: cells; experiment: Cellular uptake of FITC-labeled peptides: comparison of CPPs, temperature and inhibitors (cell line not stated); assay type: cell-based; settings: 1 h
Procedure: as §1, §2

Substance: FITC-(Acp)-RKRRQTSMTDFYHSKRRLIFSKRK [P2]
- Aggregation propensity by native PAGE [1]: a single band of P2 and without apparent aggregation
- Red blood cell membrane damage (hemolysis) [2]: did not observe red blood cell membrane damage
- Fluorescence microscopy and normalized fluorescence intensity versus incubation time [3]: significantly increased with incubation time
- Penetrating efficiency at different temperature ([4]; FITC-P2 5 µM, different temperature, 3 replications, Figure 5(A,B)): temperature dependent
- Penetration efficiency in the presence of endocytosis-related inhibitors ([4]; FITC-P2 5 µM, NaN3, NH4Cl, Heparin, Serum, MβCD, Wortmannin, hyperosmotic sucrose, Chlorpromazine, EIPA, 3 replications, Figure 5(C,D)): significantly decrease
- Penetration in the presence of wortmannin and hyperosmotic sucrose ([4]; FITC-P2 5 µM, wortmannin and hyperosmotic sucrose, Figure 5(C,D)): slightly blocked
- Penetration efficiency compared with well-known CPPs ([4]; FITC-labeled peptides 5 µM, microscopy and fluorescence intensity normalized to protein, 3 replications, Figure 4(C,D)): higher penetration efficiency than MT23 but lower than TAT and hPP10 and Dot1l
